# Tested on: neurons that have low expression of ATG7
# Details: pretreatment of neurons with lentiviral shRNA knock-down of ATG7; neurotoxin MPP+
# From the text: A lentiviral shRNA was used to knock-down the expression of ATG7, a component of the autophagy system.
smiles,measurement,value
CN1CCCC1c1cccnc1 (stereo not shown) [nicotine],prevention of MPP+ induced cellular damage,prevent MPP+ induced cellular damage
